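Tested at 5 concentrations; 48 h exposure; 96-well plates; endpoints linearly interpolated, else capped at highest concentration. GI50 marks 50% less growth.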 Activity calls are given as the source filed them. Cut-off read from the data, not from the text of the source: active = GI50 up to about 1.1 µM and inactive = higher.
Key:
Assay in all cases: DTP human tumour cell line panel, 48 h
NCI-H460 = system: NCI-H460
CCRF-CEM = system: CCRF-CEM
HCT-15 = system: HCT-15
HT-29 = system: HT-29
SW-620 = system: SW-620
OVCAR-8 = system: OVCAR-8
HOP-92 = system: HOP-92
MDA-MB-231 = system: MDA-MB-231
SF-295 = system: SF-295
KM12 = system: KM12
U-251 = system: U-251
PC-3 = system: PC-3
MDA-MB-435 = system: MDA-MB-435
Hs-578T = system: Hs-578T
A498 = system: A498
IGROV-1 = system: IGROV-1
Malme-3M = system: Malme-3M
HCT-116 = system: HCT-116
M14 = system: M14
NCI-H226 = system: NCI-H226

Structure (SMILES)	GI50 (NCI-H460)	GI50 (CCRF-CEM)	GI50 (HCT-15)	GI50 (HT-29)	GI50 (SW-620)	GI50 (OVCAR-8)	GI50 (HOP-92)	GI50 (MDA-MB-231)	GI50 (SF-295)	GI50 (KM12)	GI50 (U-251)	GI50 (PC-3)	GI50 (MDA-MB-435)	GI50 (Hs-578T)	GI50 (A498)	GI50 (IGROV-1)	GI50 (Malme-3M)	GI50 (HCT-116)	GI50 (M14)	GI50 (NCI-H226)
COc1cc(C(CN)N(C)C)cc(OC)c1OC (stereo not given)	> 100 µM (inactive)	> 100 µM (inactive)	> 100 µM	> 100 µM (inactive)	> 100 µM (inactive)	> 100 µM (inactive)	> 100 µM (inactive)	> 100 µM (inactive)	> 100 µM (inactive)	> 100 µM (inactive)	> 100 µM (inactive)	> 100 µM (inactive)	> 100 µM (inactive)	> 100 µM (inactive)	> 100 µM (inactive)	> 100 µM (inactive)	> 100 µM (inactive)	> 100 µM (inactive)	> 100 µM (inactive)	29.6 µM (inactive)
C/C(=N\NC(=S)N1CCC1)c1ccccn1	< 0.0184 µM (active)	0.01 µM (active)	< 0.0219 µM	0.01 µM (active)	< 0.0103 µM (active)	0.01 µM (active)	0.0443 µM (active)	0.0155 µM (active)	0.01 µM (active)	0.0287 µM (active)	0.01 µM (active)	0.0512 µM (active)	0.0264 µM (active)	4.06 µM (inactive)	0.446 µM (active)	0.01 µM (active)	0.175 µM (active)	0.01 µM (active)	0.01 µM (active)	0.293 µM (active)
CC1=C(C)C1[N+](=O)[O-]	> 100 µM (inactive)	> 100 µM (inactive)	> 100 µM	> 100 µM (inactive)	> 100 µM (inactive)	> 100 µM (inactive)	> 100 µM (inactive)	> 100 µM (inactive)	> 100 µM (inactive)	> 100 µM (inactive)	> 100 µM (inactive)	> 100 µM (inactive)	> 100 µM (inactive)	> 100 µM (inactive)	97.7 µM (inactive)	> 100 µM (inactive)	82.6 µM (inactive)	> 100 µM (inactive)	> 100 µM (inactive)	> 100 µM (inactive)
O=C1C=C2S[C@H]3C[C@]2(C=C1Br)C1=C(N3)C(=O)c2[nH]cc3c2C1=NCC3 [(+)-DISCORHABDIN B]	3.05 µM (inactive)	0.234 µM (active)	0.745 µM	0.344 µM (active)	0.0857 µM (active)	0.541 µM (active)	0.973 µM (active)	0.305 µM (active)	1.5 µM (inactive)	1.6 µM (inactive)	1.75 µM (inactive)	1.83 µM (inactive)	0.158 µM (active)	1.5 µM (inactive)	5.65 µM (inactive)	1.53 µM (inactive)	0.115 µM (active)	0.103 µM (active)	0.726 µM (active)	2.24 µM (inactive)
CN/C(=N\CCSCc1nc[nH]c1C)NC#N [CIMETIDINE]	> 100 µM (inactive)	> 100 µM (inactive)	> 100 µM	> 100 µM (inactive)	> 100 µM (inactive)	> 100 µM (inactive)	> 100 µM (inactive)	> 100 µM (inactive)	> 100 µM (inactive)	> 100 µM (inactive)	> 100 µM (inactive)	> 100 µM (inactive)	> 100 µM (inactive)	> 100 µM (inactive)	91.6 µM (inactive)	> 100 µM (inactive)	> 100 µM (inactive)	> 100 µM (inactive)	> 100 µM (inactive)	> 100 µM (inactive)

From ChEMBL document CHEMBL1201862, “PubChem BioAssay data set” (2004)
